This is an account of results in ChEMBL document CHEMBL1201862, “PubChem BioAssay data set” (2004).

Calls of active or inactive are those of the source.

The term AC50 denotes the concentration giving half of the maximal activity seen. One may read the IC50 as the concentration that gives 50% inhibition. In general, EC50 refers to the midpoint of the concentration-response curve.

Experiment [1] concerns the target T1, DNA repair and recombination protein RAD54-like (Homo sapiens, UniProt Q92698).
T1 sequence (Q92698 whole entry): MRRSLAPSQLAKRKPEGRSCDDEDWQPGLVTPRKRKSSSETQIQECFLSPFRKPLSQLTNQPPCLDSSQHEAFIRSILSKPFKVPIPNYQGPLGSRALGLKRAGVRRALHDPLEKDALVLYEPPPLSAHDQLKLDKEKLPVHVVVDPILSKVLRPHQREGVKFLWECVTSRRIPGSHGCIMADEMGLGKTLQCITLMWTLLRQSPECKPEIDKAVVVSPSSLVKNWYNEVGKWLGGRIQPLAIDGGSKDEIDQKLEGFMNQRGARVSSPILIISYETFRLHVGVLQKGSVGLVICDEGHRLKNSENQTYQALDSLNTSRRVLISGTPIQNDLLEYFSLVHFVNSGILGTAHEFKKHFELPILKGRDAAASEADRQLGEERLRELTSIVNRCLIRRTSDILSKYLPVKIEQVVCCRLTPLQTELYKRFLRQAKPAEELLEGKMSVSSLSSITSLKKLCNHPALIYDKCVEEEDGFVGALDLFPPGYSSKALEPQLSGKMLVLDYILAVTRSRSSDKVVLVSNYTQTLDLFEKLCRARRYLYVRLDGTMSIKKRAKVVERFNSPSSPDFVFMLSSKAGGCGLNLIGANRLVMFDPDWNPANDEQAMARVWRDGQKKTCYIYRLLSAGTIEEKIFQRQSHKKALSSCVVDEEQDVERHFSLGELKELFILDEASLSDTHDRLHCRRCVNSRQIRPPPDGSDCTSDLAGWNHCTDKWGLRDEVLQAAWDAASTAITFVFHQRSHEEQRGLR
The experiment can be described thus: inhibitors of human RAD54 branch migration, confirmation, biochemical, fluorescence, cherry-picked samples, dose series (AID 651657). Format: functional.

Experiment [2] is described as follows: Luminescent dose response cell-based high throughput screening assay for inhibitors of the Janus kinase 2 mutant JAK2V617F. [Related pubchem assays: 1446 (Primary screen.), 1521 (Confirmation assay.), 1486 (Counter screen.)]. Format: functional. A general note: The purpose of a counterscreen is to sort out artefacts and off-target activity.
Experiment [3] can be described thus: inhibitors of intracellular T. cruzi replication, confirmation, NIH3T3 host cells, beta-gal luminescence (AID 2044).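 Also: intracellular parasites grown in NIH/3T3 mouse fibroblasts as host cells; luminescent beta-galactosidase reporter signal from transgenic T. cruzi replicating inside host cells; inhibitors lower the luminescence signal.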 Format: functional, cell-based.
Experiment [4] concerns the target Aryl hydrocarbon receptor (Homo sapiens, UniProt P35869). The experiment can be described thus: Luminescence-based cell-based high throughput dose response assay for activators of the Aryl Hydrocarbon Receptor (AHR). [Related pubchem assays: 2796 (Primary screen (AHR activators in singlicate)), 2845 (Confirmation screen (AHR activators in triplicate)), 434939 (Counterscreen (PXR activators in triplicate)), 2804 (Summary (AHR activators))]. Format: ADME.

For experiment [5], the target named is T2, Oxysterols receptor LXR-beta (Homo sapiens, UniProt P55055).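 Also: agonist activity at LXR measured by a cell-based luminescence readout across a dose range, run as a counterscreen for daf-12 agonists; HEK293 cells with Gal4-LXR fusion and GAL4-driven luciferase reporter; potency for activation of Gal4-LXR reporter so compounds are agonists.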
T2 sequence (P55055 whole entry): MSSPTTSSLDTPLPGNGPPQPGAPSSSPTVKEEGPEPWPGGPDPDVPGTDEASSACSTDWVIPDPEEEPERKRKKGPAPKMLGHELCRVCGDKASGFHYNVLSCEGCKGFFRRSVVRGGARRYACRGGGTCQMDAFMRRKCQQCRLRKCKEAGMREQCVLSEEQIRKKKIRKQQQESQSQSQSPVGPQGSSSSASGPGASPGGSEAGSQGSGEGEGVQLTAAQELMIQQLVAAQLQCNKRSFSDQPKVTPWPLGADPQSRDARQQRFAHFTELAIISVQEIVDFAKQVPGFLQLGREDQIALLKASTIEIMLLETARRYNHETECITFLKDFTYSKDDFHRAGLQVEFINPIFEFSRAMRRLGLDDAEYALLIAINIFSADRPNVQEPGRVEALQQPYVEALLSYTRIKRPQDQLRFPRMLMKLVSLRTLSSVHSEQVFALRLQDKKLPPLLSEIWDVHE
Format: functional, cell-based.

For experiment [6], the target named is RNA-editing ligase 1, mitochondrial (Trypanosoma brucei brucei, UniProt P86926). The experiment can be described thus: TbREL1 ligase inhibitors, dose response, biochemical, fluorescence, Trypanosoma brucei (AID 1117295). Format: functional.
Experiment [7] is described as follows: Mtb BioA inhibitors by displacement, dose response, biochemical, coupled fluorescence displacement, 20-point, dry powder (AID 743357). Format: functional.
Experiment [8] addresses Sphingosine 1-phosphate receptor 2 (Homo sapiens, UniProt O95136). The experiment can be described thus: Dose Response Cell Based Assay for Antagonists of the S1P2 Receptor. [Related pubchem assays: 856, 736 ]. Format: functional.
The nature of experiment [9]: P. falciparum late gametocyte killing, dose response, luminescence (AID 1117278).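 Also: gametocytes exposed to compound for 24 hours.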 Format: functional, cell-based.
Experiment [10] can be described thus: Jurkat T cell cytotoxicity, dose response, cytotoxicity control for P. falciparum gametocyte viability project, luminescence (AID 1117277).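 Also: potency reflects loss of cellular ATP meaning fewer viable cells.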 Format: functional, cell-based.
A short description of experiment [11]: cytotoxicity in HPDE-C7 cells, cell-based, fluorescence, HTS (AID 430). Format: functional. The note with it: Homo sapiens.
A short description of experiment [12]: Dose-response inhibition of insulin secretion in a rat insulinoma line at 5 mM glucose (AID 1117331). Format: functional, cell-based. The note with it: INS-1E.
Experiment [13] in a line: cytotoxicity in KRAS-transformed pancreatic duct cells, primary screen, cell-based, fluorescence, HTS (AID 431).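 Also: cell line used: HPDE-C7K.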 Format: functional. The note with it: Homo sapiens.
Another experiment relates to H4. The experiment can be described thus: Luminescence Cell-Based Dose Response HTS to Identify Activators of 5'UTR Stem-Loop Driven Prion Protein mRNA Translation in H4 Neuroglioblastoma Cells. [Related pubchem assays: 1829 (Project Summary), 1814 (Primary HTS)]. Format: functional. The conditions noted are these: Homo sapiens.
Experiment [14] can be described thus: Luminescence Cell-Based Dose Confirmation HTS to Identify Activators of 5'UTR Stem-Loop Driven Alpha-Synuclein mRNA Translation in H4 Neuroglioblastoma Cells. [Related pubchem assays: 1829 (Project Summary), 1814 (Primary HTS)]. Format: functional.
A short description of experiment [15]: Luminescence Cell-Based Dose Response HTS to Identify Activators of Luciferase Translation or Activity in H4 […] Cells. [Related pubchem assays: 1829 (Project Summary), 1814 (Primary HTS)]. Format: functional.
For a further experiment, the target named is NADPH oxidase 1 (Homo sapiens, UniProt Q9Y5S8). As to the kind of experiment: Late-stage luminescence-based cell-based dose response assay to identify inhibitors of NADPH oxidase 1 (NOX1): Synthesized analogs. Format: functional.
Chain of NADPH oxidase 1 (Q9Y5S8 whole entry): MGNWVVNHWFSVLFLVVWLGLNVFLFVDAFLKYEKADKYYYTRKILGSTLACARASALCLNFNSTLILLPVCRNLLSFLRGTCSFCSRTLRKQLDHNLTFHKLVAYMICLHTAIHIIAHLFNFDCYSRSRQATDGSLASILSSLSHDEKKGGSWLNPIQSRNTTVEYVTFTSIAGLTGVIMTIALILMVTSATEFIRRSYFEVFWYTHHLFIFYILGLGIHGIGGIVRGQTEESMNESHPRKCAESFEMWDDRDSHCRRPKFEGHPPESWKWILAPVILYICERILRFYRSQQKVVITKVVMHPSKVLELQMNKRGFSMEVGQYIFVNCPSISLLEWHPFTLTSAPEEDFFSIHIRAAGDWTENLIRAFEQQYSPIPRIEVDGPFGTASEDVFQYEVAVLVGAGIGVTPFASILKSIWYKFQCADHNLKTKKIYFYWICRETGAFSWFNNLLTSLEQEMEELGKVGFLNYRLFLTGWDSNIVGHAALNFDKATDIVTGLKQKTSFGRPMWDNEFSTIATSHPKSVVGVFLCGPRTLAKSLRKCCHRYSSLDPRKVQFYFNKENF

Chain of Sphingosine 1-phosphate receptor 2 (O95136 whole entry): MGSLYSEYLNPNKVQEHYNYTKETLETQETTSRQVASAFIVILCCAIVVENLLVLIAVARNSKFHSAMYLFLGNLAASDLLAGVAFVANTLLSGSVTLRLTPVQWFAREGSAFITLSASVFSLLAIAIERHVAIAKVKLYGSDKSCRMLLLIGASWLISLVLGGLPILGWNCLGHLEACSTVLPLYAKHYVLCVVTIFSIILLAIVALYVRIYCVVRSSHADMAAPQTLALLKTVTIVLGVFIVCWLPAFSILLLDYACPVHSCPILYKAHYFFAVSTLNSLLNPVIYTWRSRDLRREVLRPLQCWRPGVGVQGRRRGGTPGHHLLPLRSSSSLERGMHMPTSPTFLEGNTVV
Chain of Aryl hydrocarbon receptor (P35869 whole entry): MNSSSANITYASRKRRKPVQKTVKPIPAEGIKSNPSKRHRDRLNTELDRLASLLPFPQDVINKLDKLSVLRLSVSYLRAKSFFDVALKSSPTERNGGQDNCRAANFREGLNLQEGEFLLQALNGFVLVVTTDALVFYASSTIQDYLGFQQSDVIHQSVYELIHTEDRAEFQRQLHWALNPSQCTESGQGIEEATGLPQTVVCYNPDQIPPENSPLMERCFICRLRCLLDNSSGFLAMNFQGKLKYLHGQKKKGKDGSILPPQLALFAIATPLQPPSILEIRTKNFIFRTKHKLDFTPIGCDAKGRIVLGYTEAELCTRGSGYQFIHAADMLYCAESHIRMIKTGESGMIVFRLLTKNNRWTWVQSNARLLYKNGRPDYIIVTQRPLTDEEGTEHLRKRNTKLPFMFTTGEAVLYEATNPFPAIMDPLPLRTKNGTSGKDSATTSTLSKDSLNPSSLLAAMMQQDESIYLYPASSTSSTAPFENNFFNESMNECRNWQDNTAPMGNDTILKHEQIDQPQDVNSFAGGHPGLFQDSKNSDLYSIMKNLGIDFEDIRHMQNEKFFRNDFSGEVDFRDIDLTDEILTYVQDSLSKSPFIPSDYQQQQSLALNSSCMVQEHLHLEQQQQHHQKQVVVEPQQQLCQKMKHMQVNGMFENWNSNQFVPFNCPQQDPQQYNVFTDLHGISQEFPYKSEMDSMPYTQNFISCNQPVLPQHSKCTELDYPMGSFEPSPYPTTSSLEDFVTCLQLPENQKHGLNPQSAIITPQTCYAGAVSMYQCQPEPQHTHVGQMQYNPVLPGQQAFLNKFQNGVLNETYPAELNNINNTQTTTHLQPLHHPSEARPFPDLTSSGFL
Chain of RNA-editing ligase 1, mitochondrial (P86926 whole entry): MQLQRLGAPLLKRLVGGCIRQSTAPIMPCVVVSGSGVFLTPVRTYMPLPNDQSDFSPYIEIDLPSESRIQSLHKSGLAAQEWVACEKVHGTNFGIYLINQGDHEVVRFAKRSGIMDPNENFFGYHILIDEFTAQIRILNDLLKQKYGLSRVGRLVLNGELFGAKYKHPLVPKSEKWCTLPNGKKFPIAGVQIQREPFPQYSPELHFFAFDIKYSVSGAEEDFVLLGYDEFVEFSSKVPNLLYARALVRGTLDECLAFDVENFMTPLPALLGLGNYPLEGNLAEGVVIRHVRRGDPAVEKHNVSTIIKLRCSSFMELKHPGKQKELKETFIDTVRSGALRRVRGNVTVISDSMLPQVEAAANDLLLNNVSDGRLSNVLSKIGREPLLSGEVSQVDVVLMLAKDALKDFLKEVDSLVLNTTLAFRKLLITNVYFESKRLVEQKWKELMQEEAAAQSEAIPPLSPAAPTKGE

In the case of `CC1CCN(CCCNC(=O)c2cc3c(Cl)nc4ccccc4c3s2)CC1`, the AC50 in experiment [1] was 11.7 µM (active). Further, in experiment [2], the half-inhibitory concentration (IC50) was 0.96 µM (active). For the same compound, in experiment [3], the EC50 is 2.1 µM (active).

Consider `Cc1ccc(Nc2ncccc2C(N)=O)cc1`, for which the EC50 in experiment [4] is 1.36 µM (active); in experiment [5] it was > 67.4 µM (inactive).

As to `CC(C)c1c(Cl)c(O)c(-c2ccccc2)c(=O)n1-c1ccc(F)cc1`, the IC50 in experiment [6] is 61.6 µM (inactive).

With `COc1ccc(C(=O)N2CCN(c3ccc(C(C)=O)cc3)CC2)cc1OC`, in [7], the half-maximal activity concentration (AC50) is 11.7 µM (active).

On to `O=C(O)c1sc2cc(C(F)(F)F)cnc2c1-c1ccccn1`, for which the IC50 in [8] is > 30 µM (not active).

For the compound `Cc1ccccc1-c1nc(CN2CCCC(C(=O)NCCCN3CCOCC3)C2)c(C)o1` (configuration not stated), the figures for the IC50 in experiment [9] and in [10] were > 109 µM (inactive) and > 83.3 µM (inactive), respectively.

Turning to `CN1C[C@H](CNC(=O)OCc2ccccc2)C[C@@H]2c3cccc4c3c(cn4C)C[C@H]21` [METERGOLINE], the EC50 in experiment [11] and in experiment [13] was > 20 µM (not active) in each case. The IC50 in [12] is > 33.3 µM (inactive).

With `c1ccc2c(c1)Nc1cc3ccccc3cc1S2`, the concentration giving a half-maximal response (EC50) in the experiment on H4 is 5.77 µM (active); in [14], 98.5 µM (active); in experiment [15], 6.01 µM (active). The IC50 on NADPH oxidase 1 is 7.58 µM (active).
